Assay results as given in patent publication US7314709B2, “Compositions and methods for detecting and quantifying COX-2 activity by lipoamino acid metabolism” (Vanderbilt University, priority 2002, dated 2008).
Changes are numbered by the printed parent chain.

Columns and labels:
Assay type in all cases: biochemical, murine
mCOX-2 Y355F = target: T1, mCOX-2 Y355F (Mus musculus, UniProt Q05769, Y341F); experiment: Initial O2 uptake rate with constriction site mutant Y355F; details: 200 nM enzyme; AA 100 μM
T1 construct: made in house; host or cells: Sf-9 insect cells
T1 sequence (Q05769 18-604 Y341F): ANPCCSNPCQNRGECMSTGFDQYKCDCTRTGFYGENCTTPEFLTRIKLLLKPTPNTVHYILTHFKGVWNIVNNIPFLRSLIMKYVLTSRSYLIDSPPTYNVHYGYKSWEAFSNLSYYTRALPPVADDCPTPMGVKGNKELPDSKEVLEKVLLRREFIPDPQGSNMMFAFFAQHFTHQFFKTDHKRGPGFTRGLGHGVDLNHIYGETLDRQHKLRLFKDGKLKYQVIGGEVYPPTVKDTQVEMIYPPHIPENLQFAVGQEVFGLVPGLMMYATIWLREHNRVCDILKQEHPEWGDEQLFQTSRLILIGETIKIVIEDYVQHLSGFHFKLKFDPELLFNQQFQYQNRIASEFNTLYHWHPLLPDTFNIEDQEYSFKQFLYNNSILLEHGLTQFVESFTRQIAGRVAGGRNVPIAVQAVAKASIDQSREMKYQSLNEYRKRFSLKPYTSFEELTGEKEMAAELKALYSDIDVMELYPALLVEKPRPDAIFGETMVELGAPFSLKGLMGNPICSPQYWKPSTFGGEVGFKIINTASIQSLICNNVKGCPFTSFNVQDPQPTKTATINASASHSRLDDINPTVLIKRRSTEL
Method: (§1) Enzymology: COX-1 was purified from ram seminal vesicles as previously described. Site-directed mutagenesis of COX-2 was performed as described previously. Recombinant COX-2 enzymes were expressed in Sf-9 insect cells and purified by ion-exchange chromatography and gel filtration as previously described. Apo-enzymes were reconstituted with hematin prior to activity assays.
(§2) COX activity was quantified as previously described. Initial reaction velocity data were obtained from the linear portion of the oxygen uptake curves. Oxygraph data were analyzed by nonlinear regression with Enzyme Kinetics 1.5 software (Trinity Software, Campton, N.H.).
(§3) At the bottom of the substrate (and inhibitor) binding site, there is a hydrogen bonding network comprised of residues Arg-120, Tyr-355, and Glu524, that form a constriction which is present in both COX isoforms. These residues contribute to the binding of the carboxylate in both AA and NSAIDs, and the glycerol moiety of 2-AG [12,23-27].

mCOX-2 E524L = target: T2, mCOX-2 E524L (Mus musculus, UniProt Q05769, E510L); experiment: Initial O2 uptake rate with constriction site mutant E524L; details: 200 nM enzyme; AA 100 μM, NAGly 200 μM
T2 construct: made in house; host or cells: Sf-9 insect cells
T2 sequence (Q05769 18-604 E510L): T1 sequence (Q05769 18-604 Y341F) with F324Y, E493L
Method: as §1, §2, §3

mCOX-2 R513H/V523I = target: T3, mCOX-2 R513H/V523I (Mus musculus, UniProt Q05769, R499H/V509I); experiment: Initial O2 uptake rate with side pocket double mutant R513H/V523I; details: 200 nM enzyme; AA 100 μM, NAGly 200 μM
T3 construct: made in house; host or cells: Sf-9 insect cells
T3 sequence (Q05769 18-604 R499H/V509I): T1 sequence (Q05769 18-604 Y341F) with F324Y, R482H, V492I
Method: as §1, §2
(§4) Previous studies have identified residues in the side pocket of COX-2, especially Arg-513, as critical determinants of 2-AG oxygenation by COX-2 [13]. […] (FIG. 5).

[1] = target: T4, mCOX-2 V4341/R513H/V5231 (VRV) (Mus musculus, UniProt Q05769, R499H/V420I/V509I); experiment: Initial O2 uptake rate with side pocket triple mutant (VRV); details: 200 nM enzyme; AA 100 μM, NAGly 200 μM
T4 construct: made in house; host or cells: Sf-9 insect cells
T4 sequence (Q05769 18-604 V420I/R499H/V509I): T1 sequence (Q05769 18-604 Y341F) with F324Y, V403I, R482H, V492I
Method: as §1, §2, §4

- reduction in initial rate of oxygenation compared with wild-type (mCOX-2 Y355F): < 3 fold
- reduction in initial rate of oxygenation compared with wild-type (mCOX-2 E524L): < 3 fold
- effect of mutation on oxygenation rate (mCOX-2 R513H/V523I): did not greatly affect
- effect of mutation on oxygenation [1]: did not greatly affect
Compound: CCCCC/C=C\C/C=C\C/C=C\C/C=C\CCCC(=O)O [AA, arachidonic acid]
